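1) Cells in 96-well plates. 2) Compound, 48 h, 5 concentrations. 3) Linear interpolation between surrounding doses. 4) Unreached endpoint = highest concentration. The concentration for 50% growth inhibition is given as GI50.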 Activity calls are given as the source filed them. Cut-off read from the data, not from the text of the source: active = GI50 up to about 1.1 µM and inactive = higher.
Columns and labels:
Assay in all cases: growth of human tumour cells (NCI), 48 h
[1] = tested on: Malme-3M
[2] = tested on: UACC-62
[3] = tested on: CAKI-1
[4] = tested on: DU-145
[5] = tested on: HT-29
[6] = tested on: OVCAR-8
[7] = tested on: UO-31
[8] = tested on: NCI-H23
[9] = tested on: MOLT-4
[10] = tested on: SW-620
[11] = tested on: NCI/ADR-RES
[12] = tested on: SK-MEL-5
[13] = tested on: OVCAR-4
[14] = tested on: 786-0
[15] = tested on: SNB-19
[16] = tested on: MDA-N
[17] = tested on: EKVX
[18] = tested on: T47D
[19] = tested on: HOP-62
[20] = tested on: U-251
[21] = tested on: SF-268
[22] = tested on: TK-10
[23] = tested on: LOX IMVI
[24] = tested on: BT-549
[25] = tested on: PC-3
[26] = tested on: NCI-H522
[27] = tested on: A549
[28] = tested on: HL-60
[29] = tested on: NCI-H460
[30] = tested on: SF-295
[31] = tested on: SK-MEL-28
[32] = tested on: HOP-92
[33] = tested on: MDA-MB-231
[34] = tested on: SF-539
[35] = tested on: SK-MEL-2
[36] = tested on: IGROV-1
[37] = tested on: RPMI-8226
[38] = tested on: UACC-257
[39] = tested on: M14
[40] = tested on: HCT-15
[41] = tested on: COLO 205
[42] = tested on: A498
[43] = tested on: Hs-578T
[44] = tested on: KM12
[45] = tested on: SN12C
[46] = tested on: CCRF-CEM
[47] = tested on: HCC 2998
[48] = tested on: HCT-116
[49] = tested on: SK-OV-3
[50] = tested on: MDA-MB-435
[51] = tested on: OVCAR-5
[52] = tested on: K562
[53] = tested on: RXF 393
[54] = tested on: OVCAR-3
[55] = tested on: SR
[56] = tested on: MCF7
[57] = tested on: SNB-75
[58] = tested on: NCI-H226
[59] = tested on: ACHN

`Cn1cc(-c2ccc(CCOC3CCCCO3)cc2)c2c(C#N)cccc21` (centres undefined) was tested, and the GI50 [1] was 83 µM (inactive), the GI50 [2] was 44.6 µM (inactive) and the GI50 [3] was > 100 µM (inactive). For the same molecule, the GI50 [4] was > 100 µM (inactive), the GI50 [5] was 17 µM (inactive) and the GI50 [6] was > 100 µM (inactive). The GI50 [7] was 28 µM (inactive), the GI50 [8] was 48.3 µM (inactive) and the GI50 [9] was 16.1 µM (inactive). The GI50 [10] was 28.5 µM (inactive), the GI50 [11] was 30.9 µM (inactive) and the GI50 [12] was > 100 µM (inactive). The GI50 [13] was 31.8 µM (inactive), the GI50 [14] was 92.3 µM (inactive) and the GI50 [15] was > 100 µM (inactive). The GI50 [16] was 48 µM (inactive), the GI50 [17] was 35.6 µM (inactive) and the GI50 [18] was 21.3 µM (inactive). The GI50 [19] was > 100 µM (inactive), the GI50 [20] was 28.6 µM (inactive) and the GI50 [21] was > 100 µM (inactive). The GI50 [22] was 48.3 µM (inactive), the GI50 [23] was 41.9 µM (inactive) and the GI50 [24] was 98.6 µM (inactive). The GI50 [25] was 27.2 µM (inactive), the GI50 [26] was > 100 µM (inactive) and the GI50 [27] was 31 µM (inactive). For the same molecule, the GI50 [28] was 19.9 µM (inactive), the GI50 [29] was 42.6 µM (inactive) and the GI50 [30] was 34.7 µM (inactive). For the same molecule, the GI50 [31] was 14.9 µM (inactive), the GI50 [32] was > 100 µM (inactive) and the GI50 [33] was 86.1 µM (inactive). For the same molecule, the GI50 [34] was 55 µM (inactive), the GI50 [35] was 28.7 µM (inactive) and the GI50 [36] was > 100 µM (inactive). The GI50 [37] was 41.9 µM (inactive), the GI50 [38] was 24.7 µM (inactive) and the GI50 [39] was 37.8 µM (inactive). The GI50 [40] was 16.6 µM, the GI50 [41] was 27 µM (inactive) and the GI50 [42] was 61.2 µM (inactive). For the same molecule, the GI50 [43] was > 100 µM (inactive), the GI50 [44] was 61.7 µM (inactive) and the GI50 [45] was > 100 µM (inactive). For the same molecule, the GI50 [46] was 24.4 µM (inactive), the GI50 [47] was 35.7 µM (inactive) and the GI50 [48] was 43.3 µM (inactive). For the same molecule, the GI50 [49] was > 100 µM (inactive), the GI50 [50] was 36.9 µM (inactive) and the GI50 [51] was > 100 µM (inactive). For the same molecule, the GI50 [52] was 22.9 µM (inactive), the GI50 [53] was 45.3 µM (inactive) and the GI50 [54] was 67.8 µM (inactive). For the same molecule, the GI50 [55] was 17.2 µM (inactive) and the GI50 [56] was 38.3 µM (inactive).

`O=C1N=C(SC2OC(CO)C(O)C(O)C2O)S/C1=C\c1ccccc1` (centres undefined) was tested, and the GI50 [1] was > 100 µM (inactive), the GI50 [2] was > 100 µM (inactive) and the GI50 [3] was > 100 µM (inactive). The GI50 [4] was > 100 µM (inactive), the GI50 [5] was > 100 µM (inactive) and the GI50 [6] was > 100 µM (inactive). The GI50 [7] was > 100 µM (inactive), the GI50 [8] was > 100 µM (inactive) and the GI50 [9] was > 100 µM (inactive). The GI50 [10] was > 100 µM (inactive), the GI50 [57] was > 100 µM (inactive) and the GI50 [11] was > 100 µM (inactive). The GI50 [12] was > 100 µM (inactive), the GI50 [14] was > 100 µM (inactive) and the GI50 [15] was > 100 µM (inactive). The GI50 [16] was > 100 µM (inactive), the GI50 [18] was > 100 µM (inactive) and the GI50 [19] was > 100 µM (inactive). For the same molecule, the GI50 [58] was > 100 µM (inactive), the GI50 [21] was > 100 µM (inactive) and the GI50 [22] was > 100 µM (inactive). For the same molecule, the GI50 [23] was > 100 µM (inactive), the GI50 [24] was > 100 µM (inactive) and the GI50 [25] was > 100 µM (inactive). The GI50 [26] was > 100 µM (inactive), the GI50 [27] was > 100 µM (inactive) and the GI50 [28] was > 100 µM (inactive). The GI50 [29] was > 100 µM (inactive), the GI50 [30] was > 100 µM (inactive) and the GI50 [31] was > 100 µM (inactive). The GI50 [33] was > 100 µM (inactive), the GI50 [34] was > 100 µM (inactive) and the GI50 [35] was > 100 µM (inactive). For the same molecule, the GI50 [36] was > 100 µM (inactive), the GI50 [37] was > 100 µM (inactive) and the GI50 [38] was > 100 µM (inactive). The GI50 [39] was > 100 µM (inactive), the GI50 [40] was over 100 µM and the GI50 [42] was > 100 µM (inactive). For the same molecule, the GI50 [43] was > 100 µM (inactive), the GI50 [44] was > 100 µM (inactive) and the GI50 [45] was > 100 µM (inactive). The GI50 [46] was > 100 µM (inactive), the GI50 [47] was > 100 µM (inactive) and the GI50 [49] was > 100 µM (inactive). The GI50 [50] was > 100 µM (inactive), the GI50 [51] was > 100 µM (inactive) and the GI50 [59] was > 100 µM (inactive). The GI50 [52] was > 100 µM (inactive), the GI50 [53] was 25.6 µM (inactive) and the GI50 [54] was > 100 µM (inactive). The GI50 [55] was > 100 µM (inactive) and the GI50 [56] was > 100 µM (inactive).

With `CC(C)(S)C(N)C(=O)O` (stereo not drawn) [DL-PENICILLAMINE] the GI50 [1] was > 100 µM (inactive), the GI50 [2] was > 100 µM (inactive) and the GI50 [3] was > 100 µM (inactive). For the same molecule, the GI50 [4] was > 100 µM (inactive), the GI50 [5] was > 100 µM (inactive) and the GI50 [6] was > 100 µM (inactive). The GI50 [8] was > 100 µM (inactive), the GI50 [9] was > 100 µM (inactive) and the GI50 [10] was > 100 µM (inactive). For the same molecule, the GI50 [57] was > 100 µM (inactive), the GI50 [11] was > 100 µM (inactive) and the GI50 [12] was > 100 µM (inactive). The GI50 [13] was > 100 µM (inactive), the GI50 [14] was > 100 µM (inactive) and the GI50 [15] was > 100 µM (inactive). The GI50 [16] was > 100 µM (inactive), the GI50 [17] was > 100 µM (inactive) and the GI50 [18] was > 100 µM (inactive). For the same molecule, the GI50 [19] was > 100 µM (inactive), the GI50 [58] was > 100 µM (inactive) and the GI50 [20] was > 100 µM (inactive). For the same molecule, the GI50 [21] was > 100 µM (inactive), the GI50 [22] was > 100 µM (inactive) and the GI50 [23] was > 100 µM (inactive). The GI50 [24] was > 100 µM (inactive), the GI50 [25] was > 100 µM (inactive) and the GI50 [26] was > 100 µM (inactive). The GI50 [27] was > 100 µM (inactive), the GI50 [29] was > 100 µM (inactive) and the GI50 [30] was > 100 µM (inactive). The GI50 [31] was > 100 µM (inactive), the GI50 [32] was > 100 µM (inactive) and the GI50 [33] was > 100 µM (inactive). The GI50 [34] was > 100 µM (inactive), the GI50 [35] was > 100 µM (inactive) and the GI50 [36] was > 100 µM (inactive). For the same molecule, the GI50 [37] was > 100 µM (inactive), the GI50 [38] was > 100 µM (inactive) and the GI50 [39] was > 100 µM (inactive). The GI50 [40] was over 100 µM, the GI50 [41] was > 100 µM (inactive) and the GI50 [42] was > 100 µM (inactive). The GI50 [43] was > 100 µM (inactive), the GI50 [44] was > 100 µM (inactive) and the GI50 [45] was > 100 µM (inactive). The GI50 [48] was > 100 µM (inactive), the GI50 [49] was > 100 µM (inactive) and the GI50 [50] was > 100 µM (inactive). The GI50 [51] was > 100 µM (inactive), the GI50 [59] was > 100 µM (inactive) and the GI50 [52] was > 100 µM (inactive). For the same molecule, the GI50 [53] was > 100 µM (inactive), the GI50 [54] was > 100 µM (inactive) and the GI50 [55] was > 100 µM (inactive). The GI50 [56] was > 100 µM (inactive).
